Results as given in patent publication US8501446B2 (Vertex Pharmaceuticals Incorporated, priority 2004, dated 2013).

Experiments:
[1] = molecular target: T1, full length Aurora-A (AA 1-403) (Homo sapiens, UniProt O14965); experiment: Aurora-A inhibition assay, standard coupled enzyme system; type: biochemical; details: average Ki if more than one value determined
T1 construct: full length Aurora-A (AA 1-403)
T1 sequence (O14965 1-403): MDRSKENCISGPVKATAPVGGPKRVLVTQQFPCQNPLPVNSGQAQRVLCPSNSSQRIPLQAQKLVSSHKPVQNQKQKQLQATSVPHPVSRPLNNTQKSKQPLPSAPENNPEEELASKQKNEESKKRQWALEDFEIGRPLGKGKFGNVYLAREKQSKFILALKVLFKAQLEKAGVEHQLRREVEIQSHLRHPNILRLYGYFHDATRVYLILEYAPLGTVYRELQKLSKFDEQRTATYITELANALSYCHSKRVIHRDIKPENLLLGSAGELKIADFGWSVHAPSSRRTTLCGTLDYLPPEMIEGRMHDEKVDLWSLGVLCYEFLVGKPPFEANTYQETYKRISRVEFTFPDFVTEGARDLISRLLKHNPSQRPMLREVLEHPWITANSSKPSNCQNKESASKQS
Experimental: Compounds were screened for their ability to inhibit full length Aurora-A (AA 1-403) activity using a standard coupled enzyme system (Fox et al., Protein Sci. 7, pp. 2249 (1998)). Reactions were carried out in a solution containing 100 mM HEPES (pH 7.5), 10 mM MgCl2, 25 mM NaCl, 300 μM NADH, 1 mM DTT and 3% DMSO. Final substrate concentrations in the assay were 200 μM ATP (Sigma Chemicals, St Louis, Mo.) and 800 μM peptide (LRRASLG, American Peptide, Sunnyvale, Calif.). Reactions were carried out at 30° C. and 35 nM Aurora-A. Final concentrations of the components of the coupled enzyme system were 2.5 mM phosphoenolpyruvate, 200 μM NADH, 60 μg/ml pyruvate kinase and 20 μg/ml lactate dehydrogenase.
An assay stock buffer solution was prepared containing all of the reagents listed above with the exception of ATP and the test compound of interest. The assay stock buffer solution (60 μl) was incubated in a 96 well plate with 2 μl of the test compound of interest at final concentrations spanning 0.002 μM to 30 μM at 30° C. for 10 min. Typically, a 12 point titration was conducted by preparing serial dilutions (from 1 mM compound stocks) with DMSO of the test compounds in daughter plates. The reaction was initiated by the addition of 5 μl of ATP (final concentration 200 μM). Rates of reaction were obtained using a Molecular Devices Spectramax plate reader (Sunnyvale, Calif.) over 10 min at 30° C. The Ki values were determined from the rate data as a function of inhibitor concentration using computerized nonlinear regression (Prism 3.0, Graphpad Software, San Diego, Calif.). Aurora-C activity was screened in a similar manner using Aurora-C protein. Aurora-B activity was screened using a radioactive assay, such as described in Examples 1 and 2, but using Aurora-B protein.

ROCK I (AA 6-553) = molecular target: T2, ROCK I (AA 6-553) (Homo sapiens, UniProt Q13464); experiment: ROCK inhibition assay, standard coupled enzyme system ("Enzyme"); type: biochemical; details: enzyme-linked assay
T2 construct: ROCK I (AA 6-553)
Experimental: Compounds were screened for their ability to inhibit ROCK I (AA 6-553) activity using a standard coupled enzyme system (Fox et al. (1998) Protein Sci. 7, 2249). Reactions were carried out in a solution containing 100 mM HEPES (pH 7.5), 10 mM MgCl2, 25 mM NaCl, 2 mM DTT and 1.5% DMSO. Final substrate concentrations in the assay were 45 μM ATP (Sigma Chemicals, St Louis, Mo.) and 200 μM peptide (American Peptide, Sunnyvale, Calif.). Reactions were carried out at 30° C. and 45 nM ROCK L. Final concentrations of the components of the coupled enzyme system were 2.5 mM phosphoenolpyruvate, 350 μM NADH, 30 μg/ml pyruvate kinase and 10 μg/ml lactate dehydrogenase.

T2 sequence (Q13464 6-553, species assumed): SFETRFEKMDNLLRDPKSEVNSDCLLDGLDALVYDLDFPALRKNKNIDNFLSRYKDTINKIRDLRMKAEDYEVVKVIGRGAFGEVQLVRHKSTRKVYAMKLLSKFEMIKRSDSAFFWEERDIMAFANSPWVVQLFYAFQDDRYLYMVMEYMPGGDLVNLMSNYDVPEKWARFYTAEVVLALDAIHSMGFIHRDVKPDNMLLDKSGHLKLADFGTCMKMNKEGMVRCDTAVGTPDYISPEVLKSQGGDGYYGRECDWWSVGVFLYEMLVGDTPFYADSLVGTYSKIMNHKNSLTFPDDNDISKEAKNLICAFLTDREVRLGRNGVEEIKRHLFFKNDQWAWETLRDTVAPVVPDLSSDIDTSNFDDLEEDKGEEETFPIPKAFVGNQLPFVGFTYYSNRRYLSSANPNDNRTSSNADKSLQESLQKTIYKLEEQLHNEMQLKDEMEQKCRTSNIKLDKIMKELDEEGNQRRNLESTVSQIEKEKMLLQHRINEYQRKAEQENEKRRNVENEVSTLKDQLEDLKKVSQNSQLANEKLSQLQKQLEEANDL

Ki [1] [nM] | Ki (ROCK I (AA 6-553)) [nM] | Compound
< 500 | 500 to 5000 | Clc1cnc2[nH]cc(-c3cccc(NCc4ccc(Cl)c(Cl)c4)n3)c2c1 [Compound 251]
< 500 | < 500 | CN(C)c1cccc(-c2c[nH]c3ncc(-c4ccccc4)cc23)n1 [Compound 253]
< 500 | 500 to 5000 | Cc1ccc(CNc2cccc(-c3c[nH]c4ncc(Cl)cc34)n2)cc1 [Compound 254]
< 500 | < 500 | CS(=O)(=O)Nc1ccc(-c2cnc3[nH]cc(-c4ccc(C(N)=O)cc4)c3c2)cc1 [Compound 255]
< 500 | < 500 | CNS(=O)(=O)c1ccc(-c2cnc3[nH]cc(-c4ccc(C(N)=O)cc4)c3c2)cc1 [Compound 256]
500 to 5000 | 500 to 5000 | CC(C)(C)OC(=O)N1CCN(c2cccc(-c3c[nH]c4ncc(Cl)cc34)n2)CC1 [Compound 257]
< 500 | 500 to 5000 | COc1ccc(CNc2cccc(-c3c[nH]c4ncc(Cl)cc34)n2)cc1 [Compound 258]
< 500 | < 500 | CCCNc1cccc(-c2c[nH]c3ncc(-c4ccccc4)cc23)n1 [Compound 259]
500 to 5000 | 500 to 5000 | Clc1ccc(CNc2cccc(-c3c[nH]c4ncc(-c5ccccc5)cc34)n2)cc1Cl [Compound 261]
500 to 5000 | 500 to 5000 | Cc1ccc(CNc2cccc(-c3c[nH]c4ncc(-c5ccccc5)cc34)n2)cc1 [Compound 262]
< 500 | 500 to 5000 | Clc1cnc2[nH]cc(-c3cccc(Nc4ccccc4Cl)n3)c2c1 [Compound 263]
< 500 | 500 to 5000 | Clc1cnc2[nH]cc(-c3cccc(NCCc4ccccc4)n3)c2c1 [Compound 264]
< 500 | 500 to 5000 | c1ccc(Nc2cccc(-c3c[nH]c4ncc(-c5ccccc5)cc34)n2)cc1 [Compound 265]
< 500 | 500 to 5000 | Clc1ccccc1Nc1cccc(-c2c[nH]c3ncc(-c4ccccc4)cc23)n1 [Compound 266]
< 500 | < 500 | Clc1cnc2[nH]cc(-c3cccc(N4CCNCC4)n3)c2c1 [Compound 267]
500 to 5000 | 500 to 5000 | OCCNc1cccc(-c2c[nH]c3ncc(Cl)cc23)n1 [Compound 270]
< 500 | 500 to 5000 | CN(C)CCCNc1cccc(-c2c[nH]c3ncc(Cl)cc23)n1 [Compound 271]
< 500 | 500 to 5000 | Clc1cccc(Nc2cccc(-c3c[nH]c4ncc(Cl)cc34)n2)c1 [Compound 273]
< 500 | 500 to 5000 | CN(Cc1ccccc1)c1cccc(-c2c[nH]c3ncc(Cl)cc23)n1 [Compound 274]
500 to 5000 | 500 to 5000 | CN1CCN(c2cccc(-c3c[nH]c4ncc(Cl)cc34)n2)CC1 [Compound 275]
< 500 | 500 to 5000 | CC(=O)N1CCN(c2cccc(-c3c[nH]c4ncc(Cl)cc34)n2)CC1 [Compound 276]
< 500 | < 500 | OCCNc1cccc(-c2c[nH]c3ncc(-c4ccccc4)cc23)n1 [Compound 277]
< 500 | < 500 | CNc1cccc(-c2c[nH]c3ncc(-c4ccccc4)cc23)n1 [Compound 278]
500 to 5000 | 500 to 5000 | CN(c1ccccc1)c1cccc(-c2c[nH]c3ncc(Cl)cc23)n1 [Compound 284]
< 500 | 500 to 5000 | C[C@H](Nc1nc(-c2c[nH]c3ncc(Cl)cc23)ncc1F)c1ccccc1 [Compound 286]
< 500 | 500 to 5000 | Clc1cnc2[nH]cc(-c3cccc(NC4CCCC4)n3)c2c1 [Compound 289]
> 5000 | 500 to 5000 | CNc1cccc(-c2cn(C)c3ncc(Cl)cc23)n1 [Compound 292]

Ki [1] [nM] | Ki (ROCK I (AA 6-553)) [nM] | Compound
500 to 5000 | 500 to 5000 | c1ccc(-c2cnc3[nH]cc(-c4cccc(N5CCCC5)n4)c3c2)cc1 [Compound 293]
< 500 | 500 to 5000 | O=C(Nc1cccc(-c2c[nH]c3ncc(Cl)cc23)n1)c1ccccn1 [Compound 294]
< 500 | 500 to 5000 | NC(=O)c1ccc(Nc2nc(-c3c[nH]c4ncc(Cl)cc34)ncc2F)cc1 [Compound 295]
< 500 | 500 to 5000 | O=C(Nc1cccc(-c2c[nH]c3ncc(Cl)cc23)n1)c1cccnc1 [Compound 296]
< 500 | 500 to 5000 | COc1ccc(CNc2cccc(-c3c[nH]c4ncc(Cl)cc34)n2)cc1OC [Compound 297]
500 to 5000 | 500 to 5000 | CNc1cccc(-c2c[nH]c3ncc(Cl)cc23)n1 [Compound 298]
500 to 5000 | 500 to 5000 | Fc1cnc(-c2c[nH]c3ncc(Cl)cc23)nc1Nc1ccc(-n2ccnc2)cc1 [Compound 301]
< 500 | < 500 | COC(=O)c1cnc2[nH]cc(-c3ncc(F)c(N[C@@H](C)c4ccc(F)cc4)n3)c2c1 [Compound 307]
500 to 5000 | 500 to 5000 | Fc1cnc(-c2c[nH]c3ncc(Cl)cc23)nc1SCc1ccc(Cl)cc1 [Compound 308]
500 to 5000 | 500 to 5000 | CNC(=O)c1cnc2[nH]cc(-c3ncc(F)c(N[C@@H](C)c4ccc(F)cc4)n3)c2c1 [Compound 309]
< 500 | 500 to 5000 | CC(Nc1nc(-c2c[nH]c3ncc(Cl)cc23)ncc1F)c1ccc(Cl)cc1 (stereo not drawn) [Compound 311]
< 500 | 500 to 5000 | C[C@@H](Nc1nc(-c2c[nH]c3ncc(Cl)cc23)ncc1F)c1ccc(N)cc1 [Compound 313]
< 500 | 500 to 5000 | Fc1cnc(-c2c[nH]c3ncc(Cl)cc23)nc1NCc1ccncc1 [Compound 318]
< 500 | 500 to 5000 | C[C@H](Nc1nc(-c2c[nH]c3ncc(Cl)cc23)ncc1F)c1cccc(OCC(=O)O)c1 [Compound 336]
< 500 | 500 to 5000 | C[C@H](Nc1nc(-c2c[nH]c3ncc(Cl)cc23)ncc1F)C(=O)N(C)C [Compound 337]
< 500 | 500 to 5000 | C[C@H](Nc1nc(-c2c[nH]c3ncc(Cl)cc23)ncc1F)C(=O)NC1CC1 [Compound 338]
< 500 | 500 to 5000 | C[C@H](Nc1nc(-c2c[nH]c3ncc([N+](=O)[O-])cc23)ncc1F)c1ccc(F)cc1 [Compound 342]
< 500 | < 500 | Fc1cnc(-c2c[nH]c3ncc(Cl)cc23)nc1NC1CCNC1 (stereo not drawn) [Compound 344]
< 500 | 500 to 5000 | C[C@H](Nc1nc(-c2c[nH]c3ncc(Cl)cc23)ncc1F)C(=O)OC(C)(C)C [Compound 351]
< 500 | 500 to 5000 | C[C@H](Nc1nc(-c2c[nH]c3ncc(Br)cc23)ncc1F)c1ccc(F)cc1 [Compound 357]
500 to 5000 | 500 to 5000 | C[C@H](Nc1nc(-c2c[nH]c3ncc(Cl)cc23)ncc1F)C(=O)O [Compound 360]
< 500 | 500 to 5000 | CC(C)NC(=O)[C@H](C)Nc1nc(-c2c[nH]c3ncc(Cl)cc23)ncc1F [Compound 363]
< 500 | 500 to 5000 | CC(C)CNC(=O)[C@H](C)Nc1nc(-c2c[nH]c3ncc(Cl)cc23)ncc1F [Compound 364]
< 500 | 500 to 5000 | C[C@H](Nc1nc(-c2c[nH]c3ncc(Cl)cc23)ncc1F)C(=O)NCCF [Compound 365]
< 500 | 500 to 5000 | Fc1cnc(-c2c[nH]c3ncc(Cl)cc23)nc1NCC1CCOCC1 [Compound 366]
< 500 | 500 to 5000 | CCNC(=O)[C@H](C)Nc1nc(-c2c[nH]c3ncc(Cl)cc23)ncc1F [Compound 367]
< 500 | 500 to 5000 | CN1CCC(CNc2nc(-c3c[nH]c4ncc(Cl)cc34)ncc2F)CC1 [Compound 372]
